Data taken from article PMC7555839 (Frontiers in Microbiology, 2020).
Where two headings read alike, the source gives them in different places.

Columns and labels:
[1] = test system: Escherichia coli E2 (in house strain); experiment: Broth microdilution (MIC/MBC); format: cell-based; conditions: E2, human clinical isolate
[2] = test system: Cutibacterium acnes P10140156 (in house strain); experiment: Broth microdilution (MIC/MBC), anaerobic; format: cell-based
[3] = test system: Enterococcus faecium ATCC 700221; experiment: Broth microdilution (MIC/MBC); format: cell-based; conditions: ATCC700221, ATCC 700221, human clinical isolate
S. aureus ATCC BAA-1556 = experiment: Broth microdilution with 20% human serum; format: cell-based, Staphylococcus aureus
Protocol: (§1) In addition, whether serum proteins affected the activity of JBC 1847 against three S. aureus strains (USA300 JE2, ATCC BAA-1556 and CC398 in house strain) was investigated. Broth microdilution assays analog to previously described, with a 20% human serum (Sigma-Aldrich, Brøndby, Denmark) concentration were carried for three S. aureus strains (Table 1). MIC and MBC values were determined as previously described.

[4] = test system: S. aureus CC398 in house strain; experiment: Broth microdilution with 20% human serum; format: cell-based, Staphylococcus aureus
Protocol: as §1

[5] = test system: Salmonella typhimurium TA100
[6] = test system: E. coli APEC O2 (in house strain); experiment: Broth microdilution (MIC/MBC); format: cell-based; conditions: Escherichia coli; APEC O2, veterinary clinical isolate
MRSA strain 43484 = experiment: Mouse skin (wound) infection model, topical treatment; format: in vivo, Staphylococcus aureus; conditions: 50 μl topical twice daily for 3 days, female mice, skin biopsies day 4
Protocol: To study the effect of topical treatment with JBC 1847 against MRSA strain 43484, a mouse skin infection model was established. Initially, female mice (18–22 g) were orally treated with 45 μl nurofen (20 mg ibuprofen/ml) and anaesthetized with 0.15 ml s.c. of Zoletil mix. The fur was removed from an area of 6 cm^2 and a part of epidermis was subsequently scraped off to obtain a 1 cm^2 superficial skin lesion. The mice were inoculated with 10 μl of a saline solution containing approximately 10^7 CFU. The day after inoculation, topical treatment with 50 μl test compound was initiated and performed twice daily for a 3-day period. Fucidic acid was included as a positive control, and vehicle treatment was included as a negative control. Through the entire study, the behavior and clinical signs of the mice were carefully observed. Mice were killed the day after last treatment, and skin biopsies from the wounded area were collected. The skin samples were homogenized using a Dispomixer and serially diluted in saline/Triton X. To determine the bacterial concentration, 20 μl spots were transferred to MRSA Brilliance agar plates (Oxoid, Thermo Scientific, Roskilde, Denmark) and incubated 20–48 h at 35°C.
Data were statically analyzed and visualized using RStudio v3.6.3 ([R Core Team, 2020]) and Microsoft excel. In general, the values reflecting the bacterial concentration (CFU/ml) were transformed into a logarithmic scale. In the growth and viability assay, the mean numbers of the bacterial concentrations from the triplicates were plotted against time and standard deviations shown as error bars. To investigate differences in bacterial concentration between treatment groups in the in vivo assay, multiple group comparisons were performed using ANOVA and P < 0.05 considered significant. The data was visualized in a standard box plot.

[7] = test system: Staphylococcus epidermidis RP62a; experiment: Broth microdilution (MIC/MBC); format: cell-based; conditions: human clinical isolate
Proteus vulgaris JEO1 = experiment: Broth microdilution (MIC/MBC); format: cell-based; conditions: JEO1, veterinary clinical isolate
[8] = test system: S. aureus CC398 (in house strain); experiment: Broth microdilution (MIC/MBC); format: cell-based; conditions: Staphylococcus aureus; CC398, veterinary clinical isolate
[9] = test system: S. epidermidis 105 (in house strain); experiment: Broth microdilution (MIC/MBC); format: cell-based; conditions: Staphylococcus epidermidis; strain 105, human clinical isolate
[10] = test system: Enterococcus faecalis JEO72G7B; experiment: Broth microdilution (MIC/MBC); format: cell-based; conditions: veterinary clinical isolate
[11] = test system: five bacterial tester strains; experiment: Ames test, overall evaluation (five tester strains); format: cell-based; conditions: in general
From the text: In this reverse mutation assay, five bacterial tester strains recommended by The Organization for Economic Cooperation and Development (OECD), were exposed to JBC 1847 in presence and absence of a metabolic activation system (S9) obtained from rat liver extract ([Maron and Ames, 1983]; [Levy et al., 2019]). The characteristics of the four Salmonella typhimurium mutants (TA98, TA100, TA1535, TA1537) and a single Escherichia coli mutant [wp2 (pKM101)] have been described by [Mortelmans and Zeiger (2000)] and [Levy et al. (2019)]. Prior to testing, the genotypes of all strains were confirmed as previously described ([Mortelmans and Zeiger, 2000]), and JBC 1847 was tested in various concentrations (1.5, 4, 10, 25, 64, 160, 400, and 1,000 μg/well) whereas DMSO served as negative control. As positive controls, five mutagenic compounds were applied in various concentrations (Supplementary Material). The Ames test was performed as described in Supplementary Material where acceptance criteria for the test results can also be found. To evaluate the test results, the mutagenicity ratio (MR) was calculated and interpreted as in previous studies ([Pah and Lakhani, 2012]; [Wang et al., 2018]). The MR was calculated as MR = x/xn. Here, x was the number of reverse mutated colonies exposed to JCB 1847 whereas xn was the number of reverse mutated colonies in the negative controls. […]

[12] = 20% human serum vs assay without serum
[13] = Staphylococcus aureus, ATCCBAA1556, 20% human serum
[14] = Staphylococcus aureus, 20% human serum

CC(C)=CCCC(C)CC[N+](C)(C)CCCN1c2ccccc2Sc2ccccc21 (stereo not shown) [JBC 1847]
MBC [1]: 8 µg/mL
MIC [1]: 8 µg/mL
MBC ([2]; BHI agar with 1% L-cystein): 0.5 to 1 µg/mL
MIC ([2]; BHI with 1% L-cysteine): 0.5 to 1 µg/mL
MBC [3]: 2 to 4 µg/mL
MIC [3]: 2 µg/mL
Increase in MBC with human serum (S. aureus ATCC BAA-1556; [12]): 128 fold
Increase in MIC with human serum (S. aureus ATCC BAA-1556; [12]): 128 fold
MBC (S. aureus ATCC BAA-1556; [13]): 64 µg/mL
MIC (S. aureus ATCC BAA-1556; [13]): 64 µg/mL
Increase in MBC with human serum [4, 12]: 128 fold
Increase in MIC with human serum [4, 12]: 128 fold
MBC [4, 14]: 64 µg/mL
MIC [4, 14]: 64 µg/mL
Mean number of reverse mutated colonies ([5]; TA100, + S9, 1.5 μg/well): 21.33 ± 2.08
Mean number of reverse mutated colonies ([5]; TA100, + S9, 4 μg/well): 19.00 ± 5.29
Mean number of reverse mutated colonies ([5]; TA100, + S9, 10 μg/well): 13.67 ± 1.53
Mean number of reverse mutated colonies ([5]; TA100, + S9, 64 μg/well): 0.0
Mean number of reverse mutated colonies ([5]; TA100, −S9, 1.5 μg/well): 24.33 ± 3.21
Mean number of reverse mutated colonies ([5]; TA100, −S9, 4 μg/well): 26.67 ± 2.08
Mean number of reverse mutated colonies ([5]; TA100, −S9, 10 μg/well): 18.00 ± 5.57
Mean number of reverse mutated colonies ([5]; TA100, −S9, 25 μg/well): 0.0
Mean number of reverse mutated colonies ([5]; TA100, −S9, 64 μg/well): 0.0
MBC [6]: 16 µg/mL
MIC [6]: 16 µg/mL
Reduction of bacterial counts compared with the vehicle (MRSA strain 43484; 1% solution): 3.0 log10 CFU
Reduction of bacterial counts compared with the vehicle (MRSA strain 43484; 2%): 3.7 log10 CFU
MIC [7]: 0.5 µg/mL
MBC (Proteus vulgaris JEO1): 32 µg/mL
MIC (Proteus vulgaris JEO1): 32 µg/mL
MBC [8]: 0.5 µg/mL
MIC [8]: 0.5 µg/mL
MIC [9]: 0.5 µg/mL
MBC [10]: 1 µg/mL
MIC [10]: 1 µg/mL
Mutagenicity ratio (MR) ([11]; all strains, MR ≥ 2 interpreted as positive): < 2
Ames test result ([11]; presence and absence of S9): non-mutagenic
